From US20160243277A1, “FAST CURING POROUS MATERIALS AND CONTROL THEREOF” (priority 2013, published 2016)

Assays:
[1] = test system: human mesenchymal stem cells (hMSCs); assay: Macromer extract dilution cytocompatibility test (modified ISO 10993-5, Live/Dead); details: undiluted (1X) extract from 10 minute media incubation with macromer, 24 hour culture
Procedure: Bone marrow-derived human mesenchymal stem cells (hMSCs) were obtained as Passage 1 in a cryovial from the Center for the Preparation and Distribution of Adult Stem Cells. Cells were cultured in growth media containing 16.5% fetal bovine serum (Atlanta Biologicals), 1% L-glutamine (Life Technologies) and Minimum Essential Media α (MEM α, Life Technologies) to about 80% confluency and utilized at Passages 5 and 6. Cells were trypsinized with 0.25% Trypsin-EDTA (Life Technologies) and seeded at a density of about 40,000 cells/cm^2 in a 96 well plate and allowed to adhere for about 24 hours. On the following day, about 100 μl of each macromer was incubated in about 300 μl growth media supplemented with 1 vol. % penicillin-streptomycin (Life Technologies) in a 48 well plate to mimic the ratio of organic to aqueous phase in the HIPE. After about 10 minute incubation at about 37° C., 5% CO2, the supernatant above the macromers was aspirated and diluted to about 10× and about 100× solutions. […] Extracted and diluted media (1, 10, and 100×) was then added to cells and cultured for an additional time, generally about 24 hours. Viability was assessed utilizing the Live/Dead® assay kit (registration with Molecular Probes Corporation, Eugene, Oreg.). The analysis used a plate reader (Tecan Infinite M200Pro) with excitation/emission wavelengths of 485/528 and 528/620 for calcein-AM and ethidium homodimer-1 dyes, respectively. Viability was normalized to cells on tissue culture polystyrene.

[2] = previously described PFDMA macromer; cited from earlier work

Compound	hMSC viability after exposure to extract media [1]	Macromer viscosity [2]
propylene fumarate dimethacrylate [PFDMA]	> 80%	about 125 cP
C=C(C)C(=O)OCCCCOC(=O)C(=C)C [BDMA, butane diol dimethacrylate]	less	
C=C(C)C(=O)OCCOC(=O)C(=C)C [EGDMA, ethylene glycol dimethacrylate]	less	
